Test results as given in patent publication US10086034B2, “Compositions and methods for inducing urinary voiding and defecation” (Dignify Therapeutics, LLC, priority 2013, dated 2018).
Entries after “also recorded” stand apart in the source; their conditions may differ. Where no end group is shown, it is not given here. [ ]: non-standard residue; d: D form. βAla = NCCC(=O)O

What was measured:
Beagle dogs = assay: Adverse events after a high i.v. dose of NK2R agonist in beagle dogs; type: in vivo; conditions: 150 ug/kg intravenous, stated in Example 10 (present tense methods)
Experimental: General: Beagle dogs (6-11 kg, purpose-bred and experimentally naïve) are housed at an AAALAC approved facility in cages (1/cage) with access to water and food. A butterfly intravenous catheter is inserted into a vein (e.g. radial or saphenous). All animal activities are performed in compliance with USDA guidelines. Animals are monitored for 5 days prior to dosing to ensure adequate health.
Treatments and Dosing: Animals are administered a dose of an NK2R agonist that produces observed adverse events. […] Adverse events are commonly quantified by measuring the number of events and the duration of each event occurring during “1 minute time bins” after NK2R agonist administration to create a time histogram of events. When voiding has stopped, a NK2R antagonist is administered intravenously. Efficacy of the NK2R antagonist is obtained by measuring the reduction in the number and duration of adverse events.

[1] = test system: bladder of anesthetized acutely spinalized female rats; assay: Bladder contractility: isovolumetric bladder pressure recording in anesthetized acutely spinalized rats; type: in vivo, Sprague Dawley rats; conditions: for bladder pressure (peak pressure response): increasing i.v. doses, acutely spinalized anesthetized female rats; for effect of antagonist pre-administration on DTI-100 induced increase in bladder pressure: antagonist 1 mg/kg, DTI-100 10 μg/kg i.v., paired t-test, N=4
Experimental: (§1) General: In vivo studies were performed in anesthetized, acutely spinalized (T9-10 level) rats (N=37) or spinally intact (N=3) rats. Adult female Sprague Dawley rats (Charles River, N.C.; 250-300 g) were housed at an AAALAC approved facility in cages (3/cage) with free access to water and food in a colony room that was maintained on a 12 hr/12 hr light/dark cycle 1-2 weeks before the experiment. Rats were anesthetized with urethane (1.2-1.4 g/kg subcutaneous injection). Surgical procedures were then performed with the addition of isoflurane anesthesia (0.05-1.5% in O2) as the full anesthetic effect of urethane takes about 1-2 hrs.
A catheter filled with heparinized saline (50 unit/ml) was inserted into the carotid artery and connected to a pressure transducer for measurement of blood pressure and heart rate. A catheter was inserted into the jugular vein for intravenous (i.v.) administration of drugs. In order to transect the spinal cord, the skin and muscle on the dorsal side at the level of the lower thoracic vertebrae were incised, and the spinal cord was carefully exposed by a laminectomy and transected at the T8-T10 spinal level. Gelfoam was placed at the incision site and the muscle and skin overlying the vertebrae were closed with wound clips. The spinal cord was cut at least 60 min before starting the experimental protocol.
Bladder Contractility: For isovolumetric recordings of bladder pressure a saline-filled polyethylene tubing with a flared tip (PE 50®) catheter was inserted into the bladder and secured in place at the dome. This catheter was used to slowly infuse saline (0.2-0.3 ml/min by an infusion pump (PHD2000 infusion, Harvard Apparatus, Holliston, Mass.) to determine the bladder capacity. The bladder capacity was determined as the volume necessary to fill the bladder to the leak point pressure (i.e. volume required to produce voiding). The bladder was then emptied, the external urethra occluded and the bladder filled to 70% capacity. This method produced a stable baseline pressure in which drug induced changes in bladder contractility could be measured. Peak pressure responses, time to peak, and time to return to near baseline values (within 5 mmHg of baseline; i.e. duration of action) after vehicle and drug administration were measured.
Dosing: Responses to saline i.v. were given to ensure stable baseline pressures and lack of response to saline (vehicle control for DTI-100) at the start of each protocol and periodical throughout the experiment. DTI-100 was given in dose range of 0.01-100 μg/kg. The NK1R antagonist, Spantide I (solubilized in saline) and NK2R antagonist GR159897 (solubilized at 50 mM in DMSO and then diluted in saline) were given at a 1 mg/kg dose. Neurokinin A (NKA) and (betaAla8)NKA(4-10) were given at doses 1-100 μg/kg. Additional routes of drug administration explored included, intramuscular, subcutaneous, and sublingual. [Lys5,MeLeu9,Nle10]-NKA(4-10) (SEQ ID NO: 1) or “DTI-100”, Spantide I, GR159897, Neurokinin A, and (BetaAla8)NKA(4-10) were obtained from TOCRIS R&D SYSTEMS, Inc. (Minneapolis, Minn.).
Data analysis: Data were examined qualitatively and quantitatively. The mean, standard deviation and standard error of the mean were calculated using MICROSOFT EXCEL. One way ANOVA tests were performed with PRISM 5 for WINDOWS (Graphpad Software, Inc., La Jolla, Calif.) and unpaired and paired t-tests were performed in EXCEL. P<0.05 was considered as statistically significant.

[2] = test system: colorectum of anesthetized acutely spinalized female rats; assay: Colorectal contractility: balloon catheter colorectal pressure in anesthetized rats; type: in vivo, Sprague Dawley rats; conditions: antagonist 1 mg/kg i.v.; DTI-100 10 μg/kg given 5 min later
Experimental: as §1, with “hrs. […]” for “hrs.”
Colorectal Contractility: Colorectal pressures were measured via a latex balloon catheter (length 3-5 cm) inserted (˜4 cm) into the distal rectal/colon region. […] This allowed drug induced changes in colorectal pressure to be monitored. Parameters measured include peak colorectal pressure response, duration of time above baseline activity (in the 1st 5 min after drug administration), area under the curve (measured during the 1st 5 min after drug administration) and the number of contractile events after vehicle and drug administration. […]
Data analysis: Data were examined qualitatively and quantitatively. The mean, standard deviation and standard error of the mean were calculated using MICROSOFT EXCEL. […]

Molecule | bladder pressure (peak pressure response) [1] | effect of antagonist pre-administration on DTI-100 induced increase in bladder pressure [1] | effect of antagonist pre-administration on DTI-100 induced increase in colorectal activity [2] | also measured
CCCC[C@H](NC(=O)[C@H](CC(C)C)N(C)C(=O)CNC(=O)[C@@H](NC(=O)[C@H](Cc1ccccc1)NC(=O)[C@H](CCCCN)NC(=O)[C@@H](N)CC(=O)O)C(C)C)C(N)=O [DTI-100, [Lys5,MeLeu9,Nle10]-NKA(4-10)] | – | – | – | duration of adverse events (Beagle dogs): approximately 15 minutes; adverse events observed (Beagle dogs; within minutes after voiding and defecation): retching, emesis, panting, and vocalization
Asp-Ser-Phe-Val-β-Ala-Leu-Met-NH2 (DSFV[βAla]LM-NH2) [(betaAla8)NKA(4-10), peptide agonist for NK2R] | produce increases in bladder pressure | – | – | –
COC1(C[S@@+]([O-])c2ccccc2)CCN(CCc2c[nH]c3ccc(F)cc23)CC1 [GR159897] | – | significantly blocked the bladder pressure increase to DTI-100 | significantly blocked the bladder pressure increase produced by DTI-100 | –
Spantide I | – | did not reduce the effect of DTI-100 on bladder pressure; also recorded: the same before (Before) and after (After) administration | did not reduce the effect of DTI-100 on colorectal activity | –
His-Lys-Thr-Asp-Ser-Phe-Val-Gly-Leu-Met-NH2 (HKTDSFVGLM-NH2) [NKA, neuropeptide neurokininA, peptide agonist for NK2R] | produce increases in bladder pressure | – | – | time to peak bladder pressure response ([1]; i.v., all doses studied): ≤ 60 s; bladder pressure ([1]; intramuscular, subcutaneous and sublingual injections, DTI-100 10-100 μg/kg, NKA 5-100 μg/kg): showed an increase in bladder pressure
